Experimental data as given in article PMC3399817 (PLoS ONE, 2012).

Experiments:
Test in all cases: KINOMEscan
Assay type in all cases: binding
[1] = molecular target: T1, ITK (Homo sapiens, UniProt Q08881); conditions: 1 uM
T1 construct: purchased Ambit KINOMEscan (DiscoverX)
Method in brief: (§1)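 A binding-competition profile was run with every compound fixed at 1 μM; hits were kinases showing inhibited substrate binding.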

[2] = molecular target: T2, ADCK4 (Homo sapiens, UniProt Q96D53); conditions: ADCK4, 1 uM
T2 construct: purchased Ambit KINOMEscan (DiscoverX)
Method in brief: as §1

[3] = molecular target: T3, TNIK (Homo sapiens, UniProt Q9UKE5); conditions: 1 uM
T3 construct: purchased Ambit KINOMEscan (DiscoverX)
Method in brief: as §1

[4] = molecular target: T4, EGFR(E746-A750del) (Homo sapiens, UniProt P00533, DEL746-750); conditions: 1 uM
T4 construct: purchased Ambit KINOMEscan (DiscoverX)
Method in brief: as §1

[5] = molecular target: T5, PIK3CA(Q546K) (Homo sapiens, UniProt P42336, Q546K); conditions: 1 uM
T5 construct: purchased Ambit KINOMEscan (DiscoverX)
Method in brief: as §1

[6] = molecular target: T6, RIOK3 (Homo sapiens, UniProt O14730); conditions: RIOK3, 1 uM
T6 construct: purchased Ambit KINOMEscan (DiscoverX)
Method in brief: as §1

[7] = molecular target: T7, FRK (Homo sapiens, UniProt P42685); conditions: 1 uM
T7 construct: purchased Ambit KINOMEscan (DiscoverX)
Method in brief: as §1

[8] = molecular target: T8, CDK3 (Homo sapiens, UniProt Q00526); conditions: CDK3, 1 uM
T8 construct: purchased Ambit KINOMEscan (DiscoverX)
Method in brief: as §1

[9] = molecular target: T9, CDK2 (Homo sapiens, UniProt P24941); conditions: CDK2, 1 uM
T9 construct: purchased Ambit KINOMEscan (DiscoverX)
Method in brief: as §1

[10] = molecular target: T10, RAF1 (Homo sapiens, UniProt P04049); conditions: RAF1, 1 uM
T10 construct: purchased Ambit KINOMEscan (DiscoverX)
Method in brief: as §1

[11] = molecular target: T11, MST4 (Homo sapiens, UniProt Q9P289); conditions: MST4, 1 uM
T11 construct: purchased Ambit KINOMEscan (DiscoverX)
Method in brief: as §1

[12] = molecular target: T12, PDGFRB (Homo sapiens, UniProt P09619); conditions: 1 uM
T12 construct: purchased Ambit KINOMEscan (DiscoverX)
Method in brief: as §1

[13] = molecular target: T13, YANK3 (Homo sapiens, UniProt Q86UX6); conditions: YANK3, 1 uM
T13 construct: purchased Ambit KINOMEscan (DiscoverX)
Method in brief: as §1

[14] = molecular target: T14, CHEK1 (Homo sapiens, UniProt O14757); conditions: CHEK1, 1 uM
T14 construct: purchased Ambit KINOMEscan (DiscoverX)
Method in brief: as §1

[15] = molecular target: T15, PKAC-beta (Homo sapiens, UniProt P22694); conditions: 1 uM
T15 construct: purchased Ambit KINOMEscan (DiscoverX)
Method in brief: as §1

[16] = molecular target: T16, ASK1 (Homo sapiens, UniProt Q99683); conditions: ASK1, 1 uM
T16 construct: purchased Ambit KINOMEscan (DiscoverX)
Method in brief: as §1

[17] = molecular target: T17, PCTK2 (Homo sapiens, UniProt Q00537); conditions: PCTK2, 1 uM
T17 construct: purchased Ambit KINOMEscan (DiscoverX)
Method in brief: as §1

[18] = molecular target: T18, MKNK2 (Homo sapiens, UniProt Q9HBH9); conditions: MKNK2, 1 uM
T18 construct: purchased Ambit KINOMEscan (DiscoverX)
Method in brief: as §1

[19] = molecular target: T19, PIK3CB (Homo sapiens, UniProt P42338); conditions: 1 uM
T19 construct: purchased Ambit KINOMEscan (DiscoverX)
Method in brief: as §1

[20] = molecular target: T20, EPHB3 (Homo sapiens, UniProt P54753); conditions: EPHB3, 1 uM
T20 construct: purchased Ambit KINOMEscan (DiscoverX)
Method in brief: as §1

[21] = molecular target: T21, AKT2 (Homo sapiens, UniProt P31751); conditions: AKT2, 1 uM
T21 construct: purchased Ambit KINOMEscan (DiscoverX)
Method in brief: as §1

[22] = molecular target: T22, MLK3 (Homo sapiens, UniProt Q16584); conditions: MLK3, 1 uM
T22 construct: purchased Ambit KINOMEscan (DiscoverX)
Method in brief: as §1

[23] = molecular target: T23, MAP3K15 (Homo sapiens, UniProt Q6ZN16); conditions: MAP3K15, 1 uM
T23 construct: purchased Ambit KINOMEscan (DiscoverX)
Method in brief: as §1

[24] = molecular target: T24, SRPK1 (Homo sapiens, UniProt Q96SB4); conditions: SRPK1, 1 uM
T24 construct: purchased Ambit KINOMEscan (DiscoverX)
Method in brief: as §1

[25] = molecular target: T25, CAMKK2 (Homo sapiens, UniProt Q96RR4); conditions: CAMKK2, 1 uM
T25 construct: purchased Ambit KINOMEscan (DiscoverX)
Method in brief: as §1

[26] = molecular target: T26, CAMKK1 (Homo sapiens, UniProt Q8N5S9); conditions: CAMKK1, 1 uM
T26 construct: purchased Ambit KINOMEscan (DiscoverX)
Method in brief: as §1

[27] = molecular target: T27, ADCK3 (Homo sapiens, UniProt Q8NI60); conditions: ADCK3, 1 uM
T27 construct: purchased Ambit KINOMEscan (DiscoverX)
Method in brief: as §1

[28] = molecular target: T28, ICK (Homo sapiens, UniProt Q9UPZ9); conditions: 1 uM
T28 construct: purchased Ambit KINOMEscan (DiscoverX)
Method in brief: as §1

[29] = molecular target: T29, AAK1 (Homo sapiens, UniProt Q2M2I8); conditions: AAK1, 1 uM
T29 construct: purchased Ambit KINOMEscan (DiscoverX)
Method in brief: as §1

[30] = molecular target: T30, RIOK1 (Homo sapiens, UniProt Q9BRS2); conditions: RIOK1, 1 uM
T30 construct: purchased Ambit KINOMEscan (DiscoverX)
Method in brief: as §1

[31] = molecular target: T31, PIK3CA(E542K) (Homo sapiens, UniProt P42336, E542K); conditions: 1 uM
T31 construct: purchased Ambit KINOMEscan (DiscoverX)
Method in brief: as §1

[32] = molecular target: T32, IKK-alpha (Homo sapiens, UniProt O15111); conditions: 1 uM
T32 construct: purchased Ambit KINOMEscan (DiscoverX)
Method in brief: as §1

[33] = molecular target: T33, PRKG1 (Homo sapiens, UniProt Q13976); conditions: PRKG1, 1 uM
T33 construct: purchased Ambit KINOMEscan (DiscoverX)
Method in brief: as §1

[34] = molecular target: T34, JAK2(JH1domain-catalytic) (Homo sapiens, UniProt O60674); conditions: 1 uM
T34 construct: JAK2(JH1domain-catalytic); purchased Ambit KINOMEscan (DiscoverX)
Method in brief: as §1

[35] = molecular target: T35, FAK (Homo sapiens, UniProt Q05397); conditions: 1 uM
T35 construct: purchased Ambit KINOMEscan (DiscoverX)
Method in brief: as §1

[36] = molecular target: T36, DRAK2 (Homo sapiens, UniProt O94768); conditions: DRAK2, 1 uM
T36 construct: purchased Ambit KINOMEscan (DiscoverX)
Method in brief: as §1

[37] = molecular target: T37, EPHA2 (Homo sapiens, UniProt P29317); conditions: EPHA2, 1 uM
T37 construct: purchased Ambit KINOMEscan (DiscoverX)
Method in brief: as §1

[38] = molecular target: T38, LATS2 (Homo sapiens, UniProt Q9NRM7); conditions: LATS2, 1 uM
T38 construct: purchased Ambit KINOMEscan (DiscoverX)
Method in brief: as §1

[39] = molecular target: T39, HCK (Homo sapiens, UniProt P08631); conditions: 1 uM
T39 construct: purchased Ambit KINOMEscan (DiscoverX)
Method in brief: as §1

T1 sequence (Q08881 whole entry): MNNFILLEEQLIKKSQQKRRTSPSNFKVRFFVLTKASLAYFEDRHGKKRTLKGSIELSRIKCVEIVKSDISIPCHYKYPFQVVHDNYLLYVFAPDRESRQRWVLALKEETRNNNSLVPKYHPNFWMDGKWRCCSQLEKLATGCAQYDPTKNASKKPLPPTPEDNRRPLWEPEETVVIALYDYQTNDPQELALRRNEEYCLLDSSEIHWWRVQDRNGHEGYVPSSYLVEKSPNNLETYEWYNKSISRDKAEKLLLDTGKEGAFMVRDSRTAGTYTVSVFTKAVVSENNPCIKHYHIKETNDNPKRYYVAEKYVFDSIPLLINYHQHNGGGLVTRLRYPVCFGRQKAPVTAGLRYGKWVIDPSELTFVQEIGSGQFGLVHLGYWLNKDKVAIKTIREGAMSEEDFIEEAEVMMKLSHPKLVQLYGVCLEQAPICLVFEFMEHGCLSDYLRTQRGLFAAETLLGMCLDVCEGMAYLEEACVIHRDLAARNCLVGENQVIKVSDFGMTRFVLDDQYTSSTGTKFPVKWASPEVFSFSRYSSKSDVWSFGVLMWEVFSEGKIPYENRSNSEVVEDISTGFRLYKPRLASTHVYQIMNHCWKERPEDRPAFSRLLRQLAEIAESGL
T11 sequence (Q9P289 whole entry): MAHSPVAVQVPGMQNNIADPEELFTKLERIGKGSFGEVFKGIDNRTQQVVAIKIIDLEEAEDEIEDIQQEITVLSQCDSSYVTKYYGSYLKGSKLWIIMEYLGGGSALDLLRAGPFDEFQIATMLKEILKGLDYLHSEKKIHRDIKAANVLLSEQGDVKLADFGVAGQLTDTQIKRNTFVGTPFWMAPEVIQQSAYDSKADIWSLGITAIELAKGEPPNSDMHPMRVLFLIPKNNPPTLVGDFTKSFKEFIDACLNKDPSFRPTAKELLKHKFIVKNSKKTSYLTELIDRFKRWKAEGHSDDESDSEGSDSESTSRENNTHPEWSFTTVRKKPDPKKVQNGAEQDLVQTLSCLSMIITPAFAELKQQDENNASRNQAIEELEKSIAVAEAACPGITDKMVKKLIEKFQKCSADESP
T28 sequence (Q9UPZ9 whole entry): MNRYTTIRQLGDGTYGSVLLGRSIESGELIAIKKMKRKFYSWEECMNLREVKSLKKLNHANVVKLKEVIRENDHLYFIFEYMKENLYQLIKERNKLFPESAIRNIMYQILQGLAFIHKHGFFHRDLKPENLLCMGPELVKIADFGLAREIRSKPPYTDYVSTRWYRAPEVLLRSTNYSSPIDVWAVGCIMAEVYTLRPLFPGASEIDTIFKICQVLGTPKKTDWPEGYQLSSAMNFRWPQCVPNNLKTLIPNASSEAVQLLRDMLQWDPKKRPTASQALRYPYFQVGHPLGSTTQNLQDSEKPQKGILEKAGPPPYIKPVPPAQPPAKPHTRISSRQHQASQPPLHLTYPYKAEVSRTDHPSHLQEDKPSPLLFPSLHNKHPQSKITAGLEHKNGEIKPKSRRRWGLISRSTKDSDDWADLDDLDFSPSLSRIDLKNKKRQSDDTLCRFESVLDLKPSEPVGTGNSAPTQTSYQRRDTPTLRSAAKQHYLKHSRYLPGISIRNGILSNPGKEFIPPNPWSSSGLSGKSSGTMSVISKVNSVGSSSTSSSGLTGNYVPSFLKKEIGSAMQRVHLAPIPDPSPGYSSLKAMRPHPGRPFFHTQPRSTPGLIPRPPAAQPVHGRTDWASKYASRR
T26 sequence (Q8N5S9 whole entry): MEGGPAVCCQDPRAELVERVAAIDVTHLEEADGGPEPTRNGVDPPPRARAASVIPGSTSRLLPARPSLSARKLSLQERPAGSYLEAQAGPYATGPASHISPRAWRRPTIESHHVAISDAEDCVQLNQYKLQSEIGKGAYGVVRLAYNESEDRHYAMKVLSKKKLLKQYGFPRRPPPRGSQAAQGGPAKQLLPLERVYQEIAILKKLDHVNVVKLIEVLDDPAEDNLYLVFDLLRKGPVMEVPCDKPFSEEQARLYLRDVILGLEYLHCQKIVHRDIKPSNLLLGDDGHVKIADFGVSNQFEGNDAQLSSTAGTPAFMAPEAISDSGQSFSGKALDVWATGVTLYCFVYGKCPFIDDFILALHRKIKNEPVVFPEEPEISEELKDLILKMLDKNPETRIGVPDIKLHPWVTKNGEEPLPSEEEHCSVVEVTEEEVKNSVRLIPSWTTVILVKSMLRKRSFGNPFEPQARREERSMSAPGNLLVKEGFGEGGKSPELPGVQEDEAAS
T19 sequence (P42338 whole entry): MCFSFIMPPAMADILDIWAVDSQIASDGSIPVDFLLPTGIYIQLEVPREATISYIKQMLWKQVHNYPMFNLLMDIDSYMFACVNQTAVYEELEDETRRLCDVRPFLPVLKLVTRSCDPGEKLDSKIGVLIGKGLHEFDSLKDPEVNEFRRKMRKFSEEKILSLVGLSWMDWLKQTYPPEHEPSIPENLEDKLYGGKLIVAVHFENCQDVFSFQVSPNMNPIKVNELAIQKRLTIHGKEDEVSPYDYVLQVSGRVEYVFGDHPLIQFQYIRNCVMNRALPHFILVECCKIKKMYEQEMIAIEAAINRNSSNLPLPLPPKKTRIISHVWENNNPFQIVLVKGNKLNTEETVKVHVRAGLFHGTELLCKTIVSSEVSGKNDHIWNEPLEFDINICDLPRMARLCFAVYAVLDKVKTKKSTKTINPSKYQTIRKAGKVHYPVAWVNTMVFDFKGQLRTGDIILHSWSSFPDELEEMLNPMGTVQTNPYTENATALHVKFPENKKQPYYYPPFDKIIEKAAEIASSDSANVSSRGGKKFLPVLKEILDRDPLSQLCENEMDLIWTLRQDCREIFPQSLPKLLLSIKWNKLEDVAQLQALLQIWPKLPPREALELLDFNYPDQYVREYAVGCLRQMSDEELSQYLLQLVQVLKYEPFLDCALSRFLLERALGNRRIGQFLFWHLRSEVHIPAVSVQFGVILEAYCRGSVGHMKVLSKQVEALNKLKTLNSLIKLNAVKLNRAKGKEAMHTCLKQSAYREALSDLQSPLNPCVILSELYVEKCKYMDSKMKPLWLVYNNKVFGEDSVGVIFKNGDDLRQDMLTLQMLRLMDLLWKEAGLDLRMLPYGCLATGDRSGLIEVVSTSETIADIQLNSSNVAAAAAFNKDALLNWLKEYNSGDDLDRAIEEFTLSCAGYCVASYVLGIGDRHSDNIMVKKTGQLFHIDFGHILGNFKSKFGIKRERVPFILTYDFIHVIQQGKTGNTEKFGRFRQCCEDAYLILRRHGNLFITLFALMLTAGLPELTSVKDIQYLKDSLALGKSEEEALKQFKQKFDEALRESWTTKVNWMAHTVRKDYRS
T14 sequence (O14757 whole entry): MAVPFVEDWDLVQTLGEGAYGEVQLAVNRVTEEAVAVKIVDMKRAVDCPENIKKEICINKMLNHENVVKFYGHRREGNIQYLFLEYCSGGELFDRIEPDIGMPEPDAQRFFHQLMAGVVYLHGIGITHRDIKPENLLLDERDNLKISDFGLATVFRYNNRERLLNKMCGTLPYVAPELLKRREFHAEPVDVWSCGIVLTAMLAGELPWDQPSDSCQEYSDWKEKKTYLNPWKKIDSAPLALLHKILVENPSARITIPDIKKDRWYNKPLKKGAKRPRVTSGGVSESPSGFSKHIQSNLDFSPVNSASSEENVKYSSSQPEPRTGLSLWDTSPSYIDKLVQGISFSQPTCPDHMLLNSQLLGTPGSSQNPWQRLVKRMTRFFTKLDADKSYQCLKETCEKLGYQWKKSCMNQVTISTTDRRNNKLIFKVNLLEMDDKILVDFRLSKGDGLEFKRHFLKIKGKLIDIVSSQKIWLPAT
T35 sequence (Q05397 whole entry): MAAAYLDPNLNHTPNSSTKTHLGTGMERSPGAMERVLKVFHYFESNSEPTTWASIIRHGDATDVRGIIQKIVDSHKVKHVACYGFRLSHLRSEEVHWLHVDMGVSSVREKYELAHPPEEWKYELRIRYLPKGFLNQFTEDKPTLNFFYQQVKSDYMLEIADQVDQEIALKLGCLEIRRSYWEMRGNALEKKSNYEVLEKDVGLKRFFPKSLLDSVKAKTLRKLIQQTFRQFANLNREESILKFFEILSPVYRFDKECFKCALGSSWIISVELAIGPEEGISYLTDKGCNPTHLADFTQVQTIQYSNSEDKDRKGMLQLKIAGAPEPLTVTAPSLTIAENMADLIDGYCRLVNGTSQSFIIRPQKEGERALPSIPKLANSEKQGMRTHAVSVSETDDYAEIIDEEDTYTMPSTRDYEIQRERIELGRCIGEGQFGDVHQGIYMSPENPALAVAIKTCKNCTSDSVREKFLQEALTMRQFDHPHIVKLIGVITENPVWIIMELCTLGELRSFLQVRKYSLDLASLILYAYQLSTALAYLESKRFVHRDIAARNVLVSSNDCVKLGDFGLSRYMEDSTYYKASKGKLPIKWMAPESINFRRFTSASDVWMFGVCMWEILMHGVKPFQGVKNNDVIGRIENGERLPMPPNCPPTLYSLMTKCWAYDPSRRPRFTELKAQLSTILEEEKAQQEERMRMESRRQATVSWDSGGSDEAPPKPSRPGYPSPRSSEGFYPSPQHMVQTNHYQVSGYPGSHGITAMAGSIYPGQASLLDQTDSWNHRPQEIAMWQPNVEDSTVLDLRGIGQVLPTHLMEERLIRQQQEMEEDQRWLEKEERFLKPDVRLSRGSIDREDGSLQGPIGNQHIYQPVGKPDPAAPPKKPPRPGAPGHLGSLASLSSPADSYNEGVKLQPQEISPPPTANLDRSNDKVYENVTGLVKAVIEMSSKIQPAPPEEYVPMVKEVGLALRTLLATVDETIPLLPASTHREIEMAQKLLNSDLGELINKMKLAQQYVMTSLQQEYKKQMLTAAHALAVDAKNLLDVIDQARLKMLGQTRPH

With `COc1ccccc1Nc1nc(-c2ccc(OC)c(OC)c2)cc2nccn12` [BAY derivative 6] the “% binding compared to no inhibitor control” value [1] was 100%, the “% binding compared to no inhibitor control” value [2] was 69% and the “% binding compared to no inhibitor control” value [3] was 98%. The “% binding compared to no inhibitor control” value [4] was 75%, the “% binding compared to no inhibitor control” value [5] was 100% and the “% binding compared to no inhibitor control” value [6] was 80%. The “% binding compared to no inhibitor control” value [7] was 84%, the “% binding compared to no inhibitor control” value [8] was 94% and the “% binding compared to no inhibitor control” value [9] was 100%. The “% binding compared to no inhibitor control” value [10] was 100%, the “% binding compared to no inhibitor control” value [11] was 72% and the “% binding compared to no inhibitor control” value [12] was 67%. The “% binding compared to no inhibitor control” value [13] was 100%, the “% binding compared to no inhibitor control” value [14] was 90% and the “% binding compared to no inhibitor control” value [15] was 95%. The “% binding compared to no inhibitor control” value [16] was 100%, the “% binding compared to no inhibitor control” value [17] was 100% and the “% binding compared to no inhibitor control” value [18] was 100%. The “% binding compared to no inhibitor control” value [19] was 100%, the “% binding compared to no inhibitor control” value [20] was 84% and the “% binding compared to no inhibitor control” value [21] was 100%. For the same molecule, the “% binding compared to no inhibitor control” value [22] was 100%, the “% binding compared to no inhibitor control” value [23] was 86% and the “% binding compared to no inhibitor control” value [24] was 75%. For the same molecule, the “% binding compared to no inhibitor control” value [25] was 100%, the “% binding compared to no inhibitor control” value [26] was 100% and the “% binding compared to no inhibitor control” value [27] was 87%. The “% binding compared to no inhibitor control” value [28] was 100%, the “% binding compared to no inhibitor control” value [29] was 52% and the “% binding compared to no inhibitor control” value [30] was 95%. The “% binding compared to no inhibitor control” value [31] was 100%, the “% binding compared to no inhibitor control” value [32] was 100% and the “% binding compared to no inhibitor control” value [33] was 100%. For the same molecule, the “% binding compared to no inhibitor control” value [34] was 13%, the “% binding compared to no inhibitor control” value [35] was 95% and the “% binding compared to no inhibitor control” value [36] was 100%. For the same molecule, the “% binding compared to no inhibitor control” value [37] was 89%, the “% binding compared to no inhibitor control” value [38] was 88% and the “% binding compared to no inhibitor control” value [39] was 83%.

For `COc1ccc(-c2cc3nccn3c(Nc3ncccc3C(N)=O)n2)cc1OC.Cl.Cl` [BAY61-3606, 2-[7-(3,4-dimethoxyphenyl)-imidazo [1,2-c]pyrimidin-5-ylamino] nicotinamide dihydrochloride, reference compound], the “% binding compared to no inhibitor control” value [1] was 100%, the “% binding compared to no inhibitor control” value [2] was 9.9% and the “% binding compared to no inhibitor control” value [3] was 69%. For the same molecule, the “% binding compared to no inhibitor control” value [4] was 49%, the “% binding compared to no inhibitor control” value [5] was 87% and the “% binding compared to no inhibitor control” value [6] was 98%. For the same molecule, the “% binding compared to no inhibitor control” value [7] was 100%, the “% binding compared to no inhibitor control” value [8] was 89% and the “% binding compared to no inhibitor control” value [9] was 86%. For the same molecule, the “% binding compared to no inhibitor control” value [10] was 81%, the “% binding compared to no inhibitor control” value [11] was 57% and the “% binding compared to no inhibitor control” value [12] was 47%. The “% binding compared to no inhibitor control” value [13] was 53%, the “% binding compared to no inhibitor control” value [14] was 100% and the “% binding compared to no inhibitor control” value [15] was 76%. For the same molecule, the “% binding compared to no inhibitor control” value [16] was 100%, the “% binding compared to no inhibitor control” value [17] was 100% and the “% binding compared to no inhibitor control” value [18] was 1.7%. The “% binding compared to no inhibitor control” value [19] was 92%, the “% binding compared to no inhibitor control” value [20] was 98% and the “% binding compared to no inhibitor control” value [21] was 79%. The “% binding compared to no inhibitor control” value [22] was 77%, the “% binding compared to no inhibitor control” value [23] was 100% and the “% binding compared to no inhibitor control” value [24] was 88%. For the same molecule, the “% binding compared to no inhibitor control” value [25] was 51%, the “% binding compared to no inhibitor control” value [26] was 48% and the “% binding compared to no inhibitor control” value [27] was 99%. For the same molecule, the “% binding compared to no inhibitor control” value [28] was 23%, the “% binding compared to no inhibitor control” value [29] was 1.6% and the “% binding compared to no inhibitor control” value [30] was 31%. The “% binding compared to no inhibitor control” value [31] was 99%, the “% binding compared to no inhibitor control” value [32] was 0.25% and the “% binding compared to no inhibitor control” value [33] was 70%. For the same molecule, the “% binding compared to no inhibitor control” value [34] was 90%, the “% binding compared to no inhibitor control” value [35] was 69% and the “% binding compared to no inhibitor control” value [36] was 15%. For the same molecule, the “% binding compared to no inhibitor control” value [37] was 100%, the “% binding compared to no inhibitor control” value [38] was 45% and the “% binding compared to no inhibitor control” value [39] was 88%.
